Measurements published in US10738101B2, “Method for selecting odor-controlling substance” (Kao Corporation, priority 2015, dated 2020).

Legend:
OR10G4 = target: T1, OR10G4 (Homo sapiens, UniProt Q8NGN3); test: Luciferase reporter gene assay, OR10G4-expressing HEK293 cells; assay type: cell-based; details: FIG. 5A, 5C
T1 construct: expressed in transfected cells; host or cells: HEK293
T1 sequence (Q8NGN3 1-311): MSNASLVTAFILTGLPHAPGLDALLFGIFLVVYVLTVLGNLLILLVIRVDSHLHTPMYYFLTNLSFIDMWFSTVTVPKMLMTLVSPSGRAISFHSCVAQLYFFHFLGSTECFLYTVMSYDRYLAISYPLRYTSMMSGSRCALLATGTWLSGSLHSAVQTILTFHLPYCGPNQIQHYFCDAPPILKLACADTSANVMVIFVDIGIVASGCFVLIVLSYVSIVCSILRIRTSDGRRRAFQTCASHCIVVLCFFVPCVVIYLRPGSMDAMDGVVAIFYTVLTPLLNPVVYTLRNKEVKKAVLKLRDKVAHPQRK
Excerpt: (§1) On the basis of sequence information registered in GenBank, genes respectively encoding 370 human olfactory receptors shown in Tables 1-1 and 1-2 and genes respectively encoding the human olfactory receptors OR5AN1, OR10G4 and OR9Q2 (respectively set forth in SEQ ID NOS: 1, 3 and 5) were cloned. Each of the genes was cloned by the PCR using human genomic DNA person (G1521: Promega) as a template. Each gene amplified by the PCR was incorporated into a pENTR vector (Invitrogen) in accordance with the instruction, and was recombined to NotI and AscI sites produced downstream from a Flag-Rho tag sequence on a pME18S vector by using NotI and AscI sites present on the pENTR vector.
(§2) In 1) of Example 1, HEK293 cells on which the 370 human olfactory receptors were respectively expressed were produced. A reaction solution having a composition shown in Table 2 was prepared and allowed to stand still in a clean bench for 15 minutes, and the resultant was added by 4.4 μL per well in a 384-well plate (BioCoat). Subsequently, the HEK293 cells (20×10^4 cells/cm^2) were seeded by 40 μL per well, and the resultant was cultured for 24 hours in an incubator kept at 37° C. and 5% CO2.
(§3) In 2) of Example 1 and Examples 2 and 3, HEK293 cells in which the human olfactory receptor OR5AN1, OR10G4, OR9Q2 or OR1A1 was expressed were produced. A reaction solution having a composition shown in Table 3 was prepared and allowed to stand still in a clean bench for 15 minutes, and the resultant was added by 10 μL per well in a 96-well plate (BioCoat). Subsequently, the HEK293 cells (3×10^5 cells/cm^2) were seeded by 90 μL per well, and the resultant was cultured for 24 hours in an incubator kept at 37° C. and 5% CO2. Cells obtained under conditions for not expressing the olfactory receptor (Mock) were also prepared to be used as a control, and were used similarly in an experiment.
The olfactory receptor expressed on the HEK293 cells increases the intracellular cAMP amount by activating adenylate cyclase in conjugation with intracellular Gαs. In the measurement of odor response in this study, luciferase reporter gene assay for monitoring the increase of the intracellular cAMP amount as a luminescence value derived from a firefly luciferase gene (fluc2P-CRE-hygro) was employed. Besides, a fused Renilla luciferase (hRluc-CMV) gene was simultaneously transferred downstream of the CMV promoter, so as to be used as an internal standard for correcting the gene transfer efficiency or an error in the number of cells. […] Under each of various stimulation conditions, a value fLuc/hRluc obtained by dividing a firefly luciferase-derived luminescence value by a Renilla luciferase-derived luminescence value was calculated. […] A dose-response curve was analyzed using Graph Pad Prism. […]

OR9Q2 = target: T2, OR9Q2 (Homo sapiens, UniProt Q8NGE9); test: Luciferase reporter gene assay, OR9Q2-expressing HEK293 cells; assay type: cell-based; details: FIG. 2, 5B, 5C
T2 construct: expressed in transfected cells; host or cells: HEK293
T2 sequence (Q8NGE9 1-314): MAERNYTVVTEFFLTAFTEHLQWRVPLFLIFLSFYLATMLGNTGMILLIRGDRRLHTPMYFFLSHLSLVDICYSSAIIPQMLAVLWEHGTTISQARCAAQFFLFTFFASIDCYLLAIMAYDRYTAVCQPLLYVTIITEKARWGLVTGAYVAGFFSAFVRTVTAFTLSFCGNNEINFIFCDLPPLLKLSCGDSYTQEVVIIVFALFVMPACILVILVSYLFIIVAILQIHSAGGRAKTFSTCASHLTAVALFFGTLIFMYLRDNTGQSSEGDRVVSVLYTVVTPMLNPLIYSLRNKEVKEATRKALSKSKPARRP
Excerpt: as §1, §2, §3
The olfactory receptor expressed on the HEK293 cells increases the intracellular cAMP amount by activating adenylate cyclase in conjugation with intracellular Gαs. In the measurement of odor response in this study, luciferase reporter gene assay for monitoring the increase of the intracellular cAMP amount as a luminescence value derived from a firefly luciferase gene (fluc2P-CRE-hygro) was employed. Besides, a fused Renilla luciferase (hRluc-CMV) gene was simultaneously transferred downstream of the CMV promoter, so as to be used as an internal standard for correcting the gene transfer efficiency or an error in the number of cells. For measuring the activity of the luciferase, Dual-Glo(™) Luciferase Assay System (Promega) was used, and the measurement was performed in accordance with the operation instruction of the product. Under each of various stimulation conditions, a value fLuc/hRluc obtained by dividing a firefly luciferase-derived luminescence value by a Renilla luciferase-derived luminescence value was calculated. A value obtained by dividing a value fLuc/hRluc induced by stimulation with an odorous substance by a value fLuc/hRluc of a cell not stimulated with the odorous substance was obtained as fold increase, which was used as an index of the response intensity. A dose-response curve was analyzed using Graph Pad Prism.
The medium was removed from each of the cultures of the olfactory receptor expressing cells produced according to Reference Example 1, and an odorous substance (muscone, guaiacol or p-cresol) was added thereto. A DMEM medium (Nacalai) containing muscone or guaiacol was added to a 384-well plate containing the culture by 30 μL per well (to a final concentration of muscone of 100 μM and of guaiacol of 1 mM). Alternatively, a CD293 medium (Invitrogen) containing p-cresol was added to a 96-well plate containing the culture by 75 μL per well (to a final concentration of 1 mM). […]

ethyl vanillin odor = test: Sensory test of cross-adaptation, target odor ethyl vanillin; assay type: in vivo, human; details: panelists
odor of p-cresyl acetate = test: Sensory test of cross-adaptation, target odor p-cresyl acetate; assay type: in vivo, human; details: panelists

Compound: C[C@@H]1CCCCCCCCCCCCC(=O)C1 [muscone, (R)-3-methyl-1-cyclopentadecanone]
- responsiveness of OR10G4 (fold increase) (OR10G4): do not have responsiveness
- responsiveness of OR9Q2 (fold increase) (OR9Q2): do not have responsiveness
- cross-adaptation of ethyl vanillin odor induced by test substance (ethyl vanillin odor): not induced
- cross-adaptation of p-cresyl acetate odor induced by test substance (odor of p-cresyl acetate): did not induce the cross-adaptation
